Test results as given in patent US10058525B2, “Application of chlorogenic acid in preparing medicines for treating lupus erythematosus” (SICHUAN JIUZHANG BIOLOGICAL SCIENCE AND TECHNOLOGY CO., LTD., priority 2015, dated 2018).

Assays:
[1] = system: lupus erythematosus model mice (kidney, liver); experiment: Triple staining (silver staining) of kidney and liver sections under light microscope, lupus model mice; format: in vivo, BALB/c mice
Protocol: The back of mice was shaved and acutely exposed to Ultraviolet of 2 h/d*3 d, with a distance of 30 cm. After exposure to UV, 2.5 mg/kg of LPS was administrated once by ip, and after 24 h, the model was successfully established; the mice in the normal control group received normal saline via ip. 24 h after injection of LPS (ip), medicines were given to the model mice by intragastric administration. Chlorogenic acid test groups received high, middle, and low doses of medicines, by intragastric administration at a respective dosage of 10 mg/kg*d, 20 mg/kg*d, and 40 mg/kg*d. The positive control group A received 2 mg/kg*d of artesunate by stomach perfusion, while the positive control group B received 1 mg/kg*d of prednisone by stomach perfusion. Mice in the model and normal control group all received 0.4 ml/mouse normal saline by gavage. After 15 days of administration, animals in each group were taken blood by separating eyeballs on days 14, 21, 28, and after cultured in water bath at 37° C. for 1 h, the blood sample was centrifugated at 2000 r/min for 5 min, to draw serum for use. On day 21, after blood collection, animals were sacrificed by dislocation, followed by collection of liver and kidney, and they were placed in fixative solutions of electron microscope and light microscrope, respectively.
[…] The thickness of slice is 3 μm, and at beginning of staining, wax was routinely deprived to water. After oxidation with 0.5% periodic acid, the slice was macerated in hexamine silver fluid for about 2 h (constant temperature 58° C.), washed with distilled water, dyed with hematoxylin for 1 min. After washing with water, the slice was dyed by dropping the ponceau staining solution for 5 min, differentiated with 70% ethanol, dehydrated with gradient ethanol, cleared with xylene, and sealed with neutral gum.

[2] = system: ENA polypeptide antibodies (anti-Sm, anti-Rib, anti-ssA, anti-ssB); experiment: Serologic detection of ENA polypeptide antibodies by immunoblotting in serum of UV + LPS lupus model mice; format: in vivo, BALB/c mice; design: key to Anti-Rib: (+): positive; (−): negative; key to Anti-Sm / Anti-ssA / Anti-ssB: (+): positive; (−): negative; (++++): intenseintensity; (+++): stronger fluorescent intensity; settings: for Anti-Rib / Anti-Sm / Anti-ssA / Anti-ssB: intragastric; for ENA polypeptide antibodies found positive (FIG. 1): treated 14 days
Protocol: The back of mice was shaved and acutely exposed to Ultraviolet of 2 h/d*3 d, with a distance of 30 cm. After exposure to UV, 2.5 mg/kg of LPS was administrated once by ip, and after 24 h, the model was successfully established; the mice in the normal control group received normal saline via ip. 24 h after injection of LPS (ip), medicines were given to the model mice by intragastric administration. Chlorogenic acid test groups received high, middle, and low doses of medicines, by intragastric administration at a respective dosage of 10 mg/kg*d, 20 mg/kg*d, and 40 mg/kg*d. The positive control group A received 2 mg/kg*d of artesunate by stomach perfusion, while the positive control group B received 1 mg/kg*d of prednisone by stomach perfusion. Mice in the model and normal control group all received 0.4 ml/mouse normal saline by gavage. After 15 days of administration, animals in each group were taken blood by separating eyeballs on days 14, 21, 28, and after cultured in water bath at 37° C. for 1 h, the blood sample was centrifugated at 2000 r/min for 5 min, to draw serum for use. On day 21, after blood collection, animals were sacrificed by dislocation, followed by collection of liver and kidney, and they were placed in fixative solutions of electron microscope and light microscrope, respectively. Serum of mice was diluted at 1:100 with special buffer solution of Shenzhen Hengjia, and then 200 μL of diluted serum was respectively added to the reactive tank with corresponding number, cultured in the incubator at 37° C. for 30 min, and washed with the buffer solution four times, 2 min for each time; 200 μL of diluted biotin goat anti-mouse IgG (1:100) was added, cultured in the incubator at 37° C. for 30 min, and then washed with the buffer solution four times, 2 min for each time; 100 μL of diluted HRP-avidin (1:100) was added, cultured in the incubator at 37° C. for 30 min, and then washed as mentioned-above; reactive solutions A and B were added till appearance of positive bands, then washed with the buffer solution. Compared with the standard bands of ENA polypeptide antibody spectrum in the same kit, if the positive bands appeared at 28/29,13.5 ku polypeptide; 15,16.5,38 kupolypeptide; 52 kupolypeptide and 47/48,45 kupolypeptide, that can be determined as anti-Sm, anti-Rib, anti-ssA, and anti-ssB positive antibody. Serum was diluted with PBS at 1:40, then 20-30 μL of diluted serum was dropped into the scrobiculus of HEp-2 cell sheets, each cell sheet for each group. In the process of dropping serum, it should be noted that the surface of cell sheet can not be touched. After addition of serum, cell sheet was placed in wet box and kept for 30 min at room temperature (25° C.). After 30 min, the cell sheet was taken out, and serum was carefully washed out with PBS, then carefully washed twice with PBS, 5 min for each time; after washing, the remained PBS was removed by special absorbent paper of […] company (In this process, it should be noted that becoming dry of cell substrates will affect the results). 20-30 μL of diluted (PBS, 1:100) FITC goat anti-mouse IgG was added by dropping, and then incubated in wet box at room temperature for 30 min. After washing with PBS, steps were same to above. The remained PBS was removed by absorbent paper, and 1-2 drops of fluorescent mounting media were added to the cell sheet. The cover glass was mounted, observed under Olympus BH-2 universal microscope, and then photographed.

[3] = chlorogenic acid group administrated for 28 days
[4] = day 14, chlorogenic acid high dose
[5] = day 14, chlorogenic acid low dose
[6] = day 14, chlorogenic acid middle dose
[7] = day 21, chlorogenic acid high dose
[8] = day 21, chlorogenic acid low dose
[9] = day 21, chlorogenic acid middle dose
[10] = day 28, chlorogenic acid high dose
[11] = day 28, chlorogenic acid low dose
[12] = day 28, chlorogenic acid middle dose

SMILES: O=C(/C=C/c1ccc(O)c(O)c1)O[C@@H]1C[C@](O)(C(=O)O)C[C@@H](O)[C@H]1O [Chlorogenic acid, 3-O-caffeoylquinic acid]
- staining of hepatic blood vessel basilar membrane [1, 3]: somewhat recovered
- thickening degree of renal glomerular and tubular basilar membrane [1, 3]: reduced compared with normal mice
- basilar membrane of renal glomerulus and tubule, pathological section ([1]; chlorogenic acid, 21 days): increased thickness compared with normal mice
- pathological section of kidney: conditions versus model group ([1]; chlorogenic acid, 21 days, especially high dose group): better than the model group
- thickening of renal glomerulus and tubular basement membrane (FIG. 8) ([1]; high dose of chlorogenic acid, 28 days, ×50): thickening degree of renal glomerulus and tubular basement membrane reduces
- Anti-Rib [2, 4]: (+)
- Anti-Sm [2, 4]: (+)
- Anti-ssA [2, 4]: (+)
- Anti-ssB [2, 4]: (+)
- Anti-Rib [2, 5]: (+)
- Anti-Sm [2, 5]: (+)
- Anti-ssA [2, 5]: (+)
- Anti-ssB [2, 5]: (+)
- Anti-Rib [2, 6]: (+)
- Anti-Sm [2, 6]: (+)
- Anti-ssA [2, 6]: (+)
- Anti-ssB [2, 6]: (+)
- Anti-Rib [2, 7]: (+)
- Anti-Sm [2, 7]: (+)
- Anti-ssA [2, 7]: (+)
- Anti-ssB [2, 7]: (+)
- Anti-Rib [2, 8]: (+)
- Anti-Sm [2, 8]: (+)
- Anti-ssA [2, 8]: (+)
- Anti-ssB [2, 8]: (+)
- Anti-Rib [2, 9]: (+)
- Anti-Sm [2, 9]: (+)
- Anti-ssA [2, 9]: (+)
- Anti-ssB [2, 9]: (+)
- Anti-Rib [2, 10]: (−)
- Anti-Sm [2, 10]: (+)
- Anti-ssA [2, 10]: (−)
- Anti-ssB [2, 10]: (−)
- Anti-Rib [2, 11]: (+)
- Anti-Sm [2, 11]: (+)
- Anti-ssA [2, 11]: (+)
- Anti-ssB [2, 11]: (+)
- Anti-Rib [2, 12]: (−)
- Anti-Sm [2, 12]: (+)
- Anti-ssA [2, 12]: (+)
- Anti-ssB [2, 12]: (+)
- ENA polypeptide antibodies found positive (FIG. 1) ([2]; high dose of chlorogenic acid): anti-Sm, anti-ssA and anti-ssB bodies are positive
- ENA polypeptide antibodies found positive (FIG. 1) ([2]; low dose of chlorogenic acid): anti-Sm, anti-ssA and anti-ssB bodies are positive
- ENA polypeptide antibodies found positive (FIG. 1) ([2]; middle dose of chlorogenic acid): anti-Sm, anti-Rib, anti-ssA and anti-ssB bodies are positive
